Test [1] concerns the target T1, human recombinant adrenergic β3 receptor (Homo sapiens, UniProt P13945).
T1 construct: host or cells: CHO-K1
Put plainly: Cyclic AMP accumulation assay (HTRF), agonist mode. The conditions noted are these: agonistic activity at β3-adrenoceptor, CHO-K1 β3 cells, cAMP. The class given is cell-based. On the procedure:
(Cyclic Amp Accumulation Assay)
Functional response of cells (agonistic or antagonistic) to the test compounds was tested by measurement of cyclic AMP formation. Therefore cyclic AMP was quantitatively determined by HTRF® (Homogeneous Time-Resolved Fluorescence) technology (Cisbio International) using a stable cell line CHO-K1 β3 expressing the human recombinant adrenergic β3 receptor (Euroscreen).
The CHO-K1 β3 cell line was maintained in Ham's F12 medium containing 10% fetal bovine serum, 400 μg/ml geneticin (G418), 100 U/mL penicillin and 100 μg/mL streptomycin (all PAA) at 37° C. and 5% CO2. Cells in mid-log phase, grown in media without antibiotics during 18 h prior to the experiment, were detached by gentle flushing with 2 ml PBS-EDTA pH 7.5 (Cambrex) and resuspended in 8 mL of medium without antibiotics. Cells were then counted, centrifuged in a 30 mL PP tube (Corning) at 2000 rpm for 1 min and resuspended in HBSS/20 mM HEPES/0.05% BSA buffer (all PAA) including 1 mM IBMX (Sigma). Cells were then dispensed at 3.2×10^5−3.6×10^5 cells/well in black 96-half well microtiter plates (Corning). After addition of the test compounds for dose response curves the plates were incubated for 10 min at room temperature.
cAMP HTRF® Kit reagents were then added as recommended by the manufacturer and plates were sealed with plate sealer. After 1 hour of incubation the plates were read in a Tecan Ultra Reader using the “multilabeling” option of Tecan Xfluor4 software with the following parameters, excitation filter 320 nm, mirror dichroic2, lag time 150 μs, integration time 500 μs, number of flashes 10, optimal gain and z-position. For measurement 1 an emission filter at 620 nm and for measurement 2 an emission filter at 665 nm was chosen.
EC50 value calculation for the agonist assay and IC50 value calculation for the antagonist assay, respectively, were performed with the MS Excel Solver function based on a four-parameter fit.
Background: Time-resolved FRET reads energy transfer from a long-lived donor to a nearby acceptor.

Test [2] has as its system β3 over β1- and β2-adrenoceptors. Put plainly: Overall selectivity A×B from radioligand binding (β1, β2, β3) and functional β3 assay. Details: species or system human. The conditions noted are these: A=Ki(β1)/Ki(β3); B=Ki(β2)/EC50(β3); overall = A multiplied by B. On the procedure:
Selectivity for β3 over the other two adrenoceptors was thus defined as:
A) selectivity factor for β3 over β1=Ki(β1)/Ki(β3);
B) selectivity factor for β3 over β2=Ki(β2)/EC50(β3);
overall selectivity was determined as factor A) multiplied by factor B)
Membrane preparations containing human β1-, β2- or β3-adrenergic receptors were purchased from Euroscreen.
Determination of IC50 deployed a competition binding experiment where an unlabeled test compound competes with the radioligand for the receptor's binding site.
For competition binding experiments 0.1 μg/μL β3 membranes were pre-incubated with the respective compounds at r.t. for 10 minutes. The binding buffer consisted of 25 mM Hepes, 1 mM EDTA, 0.5% BSA pH 7.4. All incubation steps were done in a 96 well Masterblock PP/1 mL (Greiner), the total assay volume was 100 μL.
The reaction mixtures were transferred to a 96 well UnifilterGF/B filter plate (Millipore), pre-soaked in 0.5% BSA, using the PerkinElmer filtermate. Each well was washed with 8×1 mL ice cold binding buffer supplemented with 0.5M NaCl. The GF/B filter plates were dried for 5 min on the filtermate. To each well, 50 μL OptiPhase scintillation cocktail (PerkinElmer) was added and incubated at r.t. for 10 min.
Bound radioactivity was quantified in a Wallac-Microbeta plate reader (PerkinElmer). Each well was counted for 2 min in top-count mode.
For competition binding experiments 0.25 μg/well β1 or 0.5 μg/well β2 membranes were pre-incubated with the respective compounds at r.t. for 10 minutes. […] All incubation steps were done in a 96 well Masterblock PP/1 mL (Greiner), the total assay volume was 250 μL.
The reaction mixtures were transferred to a 96 well UnifilterGF/B filter plate (Millipore), pre-soaked in 0.5% PEI, using the PerkinElmer filtermate, Each well was wash with 8×1 mL ice cold binding buffer. The GF/B filter plates were dried for 5 min on the filtermate. To each well 50 μL OptiPhase scintillation cocktail (PerkinElmer) was added and incubated at r.t. for 10 min.
Bound radioactivity was quantified in a Wallac-Microbeta plate reader (PerkinElmer). Each well was counted for 2 min in top-count mode

Molecules are shown by their SMILES.

One may read the EC50 as the concentration needed to bring the measured effect to its halfway point.

T1 sequence (P13945 whole entry): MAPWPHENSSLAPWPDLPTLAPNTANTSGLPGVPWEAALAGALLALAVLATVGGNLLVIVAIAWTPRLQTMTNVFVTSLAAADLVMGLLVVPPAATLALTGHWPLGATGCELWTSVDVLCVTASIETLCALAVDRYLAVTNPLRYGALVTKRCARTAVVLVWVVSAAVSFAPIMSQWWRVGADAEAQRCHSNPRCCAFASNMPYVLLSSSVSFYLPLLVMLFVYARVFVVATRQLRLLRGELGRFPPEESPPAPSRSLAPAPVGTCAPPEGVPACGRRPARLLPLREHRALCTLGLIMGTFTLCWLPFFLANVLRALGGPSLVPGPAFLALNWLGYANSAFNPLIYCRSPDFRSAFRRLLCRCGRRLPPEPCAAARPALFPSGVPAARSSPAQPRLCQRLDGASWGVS

For `Cc1nc(N2CCC(NCC(O)COc3ccc(O)cc3)CC2)c2ccsc2n1` (stereo not drawn) [Example 5, 4-(2-hydroxy-3-(1-(2-methylthieno[2,3-d]pyrimidin-4-yl)piperidin-4-ylamino)propoxy)phenol], the EC50 in test [1] lay in the range of 11 to 100 nM. Also, the “selectivity [A x B]” value in test [2] is “++ (A×B=101-1000)”.
For `Cc1cc(C)nc(N2CCC(NCC(O)COc3ccc(O)cc3)CC2)n1` (stereo not drawn) [Example 8, 4-(3-(1-(4,6-dimethylpyrimidin-2-yl)piperidin-4-ylamino)-2-hydroxypropoxy)phenol], in that order: 11 to 100 nM and 0 (A×B<10).
Turning to `CN(CC(O)COc1ccc(O)cc1)C1CCN(c2ncnc3scc(-c4ccc(F)cc4)c23)CC1` (stereo not drawn) [Example 11, 4-(3-((1-(5-(4-fluorophenyl)thieno[2,3-d]pyrimidin-4-yl)piperidin-4-yl)(methyl)amino)-2-hydroxypropoxy)phenol], the EC50 in test [1] was greater than 100 nM. Moreover, the “selectivity [A x B]” value in test [2] is 0 (A×B<10).
For `CCOC(=O)c1cc(OCC(O)CNC2CCN(c3ncnc4scc(-c5ccccc5)c34)CC2)ccc1O` (stereo not drawn) [Example 12], the EC50 in test [1] was greater than 100 nM. For the same compound, the “selectivity [A x B]” value in test [2] is on record as 0 (A×B<10).
For the compound `OCc1cc(OCC(O)CNC2CCN(C3=NCNc4scc(-c5ccccc5)c43)CC2)ccc1O` (stereo not drawn) [Example 14, 4-(2-hydroxy-3-(1-(5-phenyl-1,2-dihydrothieno[2,3-d]pyrimidin-4-yl)piperidin-4-ylamino)propoxy)-2-(hydroxymethyl)phenol], in test [1], the concentration for a half-maximal effect (EC50) was 0.01 to 0.99 nM. In addition, in test [2], the “selectivity [A x B]” value was “+++ (A×B>1000)”.
For `CCOC(=O)c1cc(OCC(O)CNC2CCN(c3ncnc4scc(C)c34)CC2)ccc1O` (stereo not drawn) [Example 17, ethyl 2-hydroxy-5-(2-hydroxy-3-(1-(5-methylthieno[2,3-d]pyrimidin-4-yl)piperidin-4-ylamino)propoxy)benzoate] the same measures were greater than 100 nM and 0 (A×B<10).
`Cc1nc(N2CCC(NCC(O)COc3ccc(O)c(CO)c3)CC2)c2ccsc2n1` (stereo not drawn) [Example 19, 4-(2-hydroxy-3-(1-(2-methylthieno[2,3-d]pyrimidin-4-yl)piperidin-4-ylamino)propoxy)-2-(hydroxymethyl)phenol]: the half-maximal effective concentration (EC50) in test [1] lay in the range of 1 to 10 nM. Also, the “selectivity [A x B]” value in test [2] was “+++ (A×B>1000)”.
For the compound `CCOC(=O)c1cc(OCC(O)CNC2CCN(c3ncnc4sc(-c5ccccc5)c(C)c34)CC2)ccc1O` (stereo not drawn) [Example 20, ethyl 2-hydroxy-5-(2-hydroxy-3-(1-(5-methyl-6-phenylthieno[2,3-d]pyrimidin-4-yl)piperidin-4-ylamino)propoxy)benzoate], the concentration giving a half-maximal response (EC50) in test [1] is greater than 100 nM. Besides, the “selectivity [A x B]” value in test [2] was 0 (A×B<10).
For `CCOC(=O)c1cc(OCC(O)CNC2CCN(c3ncnc4ccsc34)CC2)ccc1O` (stereo not drawn) [Example 22, ethyl 2-hydroxy-5-(2-hydroxy-3-(1-(thieno[3,2-d]pyrimidin-4-yl)piperidin-4-ylamino)propoxy)benzoate], in that order: greater than 100 nM and 0 (A×B<10).
For the compound `Cc1cc(C)nc(N2CCC(NCC(O)COc3ccc(O)c(CO)c3)CC2)n1` (stereo not drawn) [Example 24, 4-(3-(1-(4,6-dimethylpyrimidin-2-yl)piperidin-4-ylamino)-2-hydroxypropoxy)-2-(hydroxymethyl)phenol], in test [1], the EC50 was 1 to 10 nM. For the same compound, in test [2], the “selectivity [A x B]” value is listed as “+++ (A×B>1000)”.
On to `CCOC(=O)c1cc(OCC(O)CNC2CCN(c3ncnc4scc(-c5cccs5)c34)CC2)ccc1O` (stereo not drawn) [Example 25, ethyl 2-hydroxy-5-(2-hydroxy-3-(1-(5-(thiophen-2-yl)thieno[2,3-d]pyrimidin-4-yl)piperidin-4-ylamino)propoxy)benzoate], for which the EC50 in test [1] was greater than 100 nM. The “selectivity [A x B]” value in test [2] was 0 (A×B<10).
On to `COC(=O)c1ccc(OCC(O)CNC2CCN(c3ncnc4scc(-c5ccccc5)c34)CC2)cc1O` (stereo not drawn) [Example 28, methyl 2-hydroxy-4-(2-hydroxy-3-(1-(5-phenylthieno[2,3-d]pyrimidin-4-yl)piperidin-4-ylamino)propoxy)benzoate], for which the EC50 in test [1] is greater than 100 nM. In test [2], the “selectivity [A x B]” value is reported as 0 (A×B<10).
Turning to `CCOC(=O)c1cc(O)ccc1OCC(O)CNC1CCN(c2ncnc3scc(-c4ccccc4)c23)CC1` (stereo not drawn) [Example 32, ethyl 5-hydroxy-2-(2-hydroxy-3-(1-(5-phenylthieno[2,3-d]pyrimidin-4-yl)piperidin-4-ylamino)propoxy)benzoate], the half-maximal effective concentration (EC50) in test [1] was in the range of 1 to 10 nM. Further, in test [2], the “selectivity [A x B]” value was “+ (A×B=10-100)”.
For `COC(=O)c1ccc(O)cc1OCC(O)CNC1CCN(c2ncnc3scc(-c4ccccc4)c23)CC1` (stereo not drawn) [Example 34, methyl 4-hydroxy-2-(2-hydroxy-3-(1-(5-phenylthieno[2,3-d]pyrimidin-4-yl)piperidin-4-ylamino)propoxy)benzoate], in that order: greater than 100 nM and 0 (A×B<10).
With `Cc1csc2ncnc(N3CCC(NCC(O)COc4cccc(CO)c4)CC3)c12` (stereo not drawn) [Example 37, 1-(3-(hydroxymethyl)phenoxy)-3-(1-(5-methylthieno[2,3-d]pyrimidin-4-yl)piperidin-4-ylamino)propan-2-ol], the 50% effective concentration (EC50) in test [1] lay within 11 to 100 nM. The “selectivity [A x B]” value in test [2] is 0 (A×B<10).
For `Cc1nc(N2CCC(NCC(O)COc3cccc(CO)c3)CC2)c2ccsc2n1` (stereo not drawn) [Example 38, 1-(3-(hydroxymethyl)phenoxy)-3-(1-(2-methylthieno[2,3-d]pyrimidin-4-yl)piperidin-4-ylamino)propan-2-ol], in that order: greater than 100 nM and 0 (A×B<10).
Consider `Cc1c(-c2ccccc2)sc2ncnc(N3CCC(NCC(O)COc4cccc(CO)c4)CC3)c12` (stereo not drawn) [Example 39, 1-(3-(hydroxymethyl)phenoxy)-3-(1-(5-methyl-6-phenylthieno[2,3-d]pyrimidin-4-yl)piperidin-4-ylamino)propan-2-ol], for which the EC50 in test [1] was greater than 100 nM. In addition, in test [2], the “selectivity [A x B]” value was 0 (A×B<10).
For `OCc1cccc(OCC(O)CNC2CCN(c3ncnc4scc(-c5ccc(F)cc5)c34)CC2)c1` (stereo not drawn) [Example 40, 1-(1-(5-(4-fluorophenyl)thieno[2,3-d]pyrimidin-4-yl)piperidin-4-ylamino)-3-(3-(hydroxymethyl)phenoxy)propan-2-ol], in that order: 11 to 100 nM and “+ (A×B=10-100)”.
For `CN(CC(O)COc1cccc(CO)c1)C1CCN(c2ncnc3scc(-c4ccccc4)c23)CC1` (stereo not drawn) [Example 41, 1-(3-(hydroxymethyl)phenoxy)-3-(methyl(1-(5-phenylthieno[2,3-d]pyrimidin-4-yl)piperidin-4-yl)amino)propan-2-ol] the same measures were greater than 100 nM and “+ (A×B=10-100)”.
Take `Cc1c(-c2ccccc2)sc2ncnc(N3CCC(N(C)CC(O)COc4cccc(CO)c4)CC3)c12` (stereo not drawn) [Example 42, 1-(3-(hydroxymethyl)phenoxy)-3-(methyl(1-(5-methyl-6-phenylthieno[2,3-d]pyrimidin-4-yl)piperidin-4-yl)amino)propan-2-ol]: the concentration for a half-maximal effect (EC50) in test [1] is greater than 100 nM. The “selectivity [A x B]” value in test [2] was 0 (A×B<10).
On to `OCc1ccc(OCC(O)CNC2CCN(c3ncnc4scc(-c5ccc(F)cc5)c34)CC2)cc1` (stereo not drawn) [Example 44, 1-(1-(5-(4-fluorophenyl)thieno[2,3-d]pyrimidin-4-yl)piperidin-4-ylamino)-3-(4-(hydroxymethyl)phenoxy)propan-2-ol], for which, in test [1], the EC50 was greater than 100 nM. Also, the “selectivity [A x B]” value in test [2] is recorded as “+ (A×B=10-100)”.

For the origin of these results see patent US8207174B2, “Aryloxypropanolamines, methods of preparation therof and use of aryloxypropanolamines as medicaments” (4SC AG, priority 2007, dated 2012).
